{"source": "paper PMC10011573", "about": "“Development of novel broad-spectrum antimicrobial lipopeptides derived from plantaricin NC8 β” (Scientific Reports, 2023)", "key": {"S. aureus (ATCC 29213)": {"system": "S. aureus (ATCC 29213)", "type": "cell-based", "details": "ATCC 29213, 20 h"}, "[1]": {"test": "Carboxyfluorescein release assay, bacterial liposome model", "type": "biochemical", "details": "75:25 POPC:POPG liposomes, 25 µM lipid, 10 mM PBS pH 7.4, 10^–5–10^2 µM peptide, 60 min, fluorescence, Hill fit, n = 3; read-out: EC50 Bacterial (concentration that triggers 50% CF release)", "summary_of_the_method": "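CF-loaded extruded 0.1 µm unilamellar liposomes: bacterial POPC:POPG 75:25, mammalian POPC:POPS:Chol 65:5:30. Liposomes at 25 µM lipid in PBS pH 7.4 incubated with peptide (10^–5–10^2 µM; n = 3), fluorescence read every 2.5 min for 1 h. Release normalized to 1% Triton X-100; EC50 from Hill-1 fit.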"}, "human erythrocytes": {"system": "human erythrocytes", "test": "Hemolytic activity", "type": "cell-based", "details": "15% suspension in PBS, 1 h, 37 °C, absorbance 540 nm, highest tested concentration 100 µM"}, "[2]": {"test": "Dynamic light scattering, critical aggregation concentration", "type": "physicochemical", "details": "DLS scattering intensity at 90°, 10 mM PBS pH 7.4, serial dilution 100 µM to 0.01 nM, 22 °C, average of 10 runs of 30 s; estimated", "protocol": "Lipopeptide aggregation was evaluated on a ALV/CGS-8F Platform (ALV-GmbH, Langen, Germany) equipped with a […] He–Ne laser. Scattered light was collected at 90°. PBS (10 mM, pH 7.4) was chosen as buffer, and filtered with a 0.22 µm filter prior to use. The samples were prepared in a cylindrical glass cuvette immersed in refractive-index matching toluene. The peptides were serially diluted between 100 µM and 0.01 nM, sonicated for 1 min and incubated for 5 min at 22 °C and vortexed prior to measuring. The temperature was controlled throughout the experiment with the use of a circulating water bath. Data were analysed with ALV-Correlator (Version 3.0, ALV-GmbH, Langen, Germany) software, and the scattering intensity was obtained through an average of 10 consecutive 30 s runs."}}, "note": "pEC50: −log10 of the molar value. Residues, ends and D or L forms follow the SMILES beside them. *: point of attachment. Pentanoyl = CCCCC(=O)*"}
{"smiles": "CCCCC(=O)N[C@@H](CC(C)C)C(=O)NCC(=O)N[C@H](C(=O)N[C@@H](CCCCN)C(=O)N[C@H](C(=O)N[C@@H](CC(C)C)C(=O)N[C@@H](Cc1c[nH]c2ccccc12)C(=O)N[C@@H](CO)C(=O)N[C@@H](C)C(=O)N[C@@H](Cc1ccc(O)cc1)C(=O)N[C@@H](CCCCN)C(=O)N[C@@H](Cc1c[nH]cn1)C(=O)N[C@@H](CCCNC(=N)N)C(=O)N[C@@H](CCCCN)C(=O)N[C@H](C(=O)N[C@H](C(N)=O)[C@@H](C)CC)[C@@H](C)O)[C@@H](C)CC)[C@@H](C)CC", "note": "[L-6-C5] (Pentanoyl-LGIKILWSAYKHRKTI-NH2)", "values": [{"measurement": "S. aureus MBC, lipopeptide alone", "setting": "S. aureus (ATCC 29213)", "value": 6.25, "unit": "µM"}, {"measurement": "S. aureus MIC, lipopeptide alone", "setting": "S. aureus (ATCC 29213)", "value": 6.25, "unit": "µM"}, {"measurement": "pEC50", "setting": "[1]", "value": 6.96}, {"measurement": "HC, hemolytic concentration at 5% hemolytic activity", "setting": "human erythrocytes", "value": "> 100", "unit": "µM"}, {"measurement": "critical aggregation concentration (CAC)", "setting": "[2]", "value": 5.6, "unit": "µM"}]}
